Experimental findings from US20230399312A1, “SUBSTITUTED PYRIMIDINES AND METHODS OF USE” (THERAVANCE BIOPHARMA R&D IP, LLC, priority 2020, published 2023) are described below.

Each structure is given as a SMILES string. Bounds are passed on as bounds.

The test system of assay [1] is TGF-β-stimulated SMAD3 phosphorylation in BEAS-2B cells. The experiment in a line: Cellular ALK5 potency assay, inhibition of TGF-β stimulated pSMAD3 formation in BEAS-2B cells. The format is cell-based. The conditions noted are these: Homo sapiens, pSMAD3, TGF-β 10 ng/mL, read-out: BEAS2B pIC50 (converted). The procedure, abridged:
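Read-out is AlphaLISA detection of phospho-SMAD3 in lysates of BEAS-2B human lung epithelial cells. Cells are exposed to compound for 1 hour, then to 10 ng/mL TGF-β (final) for 30 minutes. Values are pIC50 from concentration–response curves.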

Assay [2] has as its target T1, recombinant human ALK5 (TGF-βR1) protein (Homo sapiens, UniProt P36897).
T1 construct: purchased Life Technologies PR9075A
T1 sequence (P36897 34-503): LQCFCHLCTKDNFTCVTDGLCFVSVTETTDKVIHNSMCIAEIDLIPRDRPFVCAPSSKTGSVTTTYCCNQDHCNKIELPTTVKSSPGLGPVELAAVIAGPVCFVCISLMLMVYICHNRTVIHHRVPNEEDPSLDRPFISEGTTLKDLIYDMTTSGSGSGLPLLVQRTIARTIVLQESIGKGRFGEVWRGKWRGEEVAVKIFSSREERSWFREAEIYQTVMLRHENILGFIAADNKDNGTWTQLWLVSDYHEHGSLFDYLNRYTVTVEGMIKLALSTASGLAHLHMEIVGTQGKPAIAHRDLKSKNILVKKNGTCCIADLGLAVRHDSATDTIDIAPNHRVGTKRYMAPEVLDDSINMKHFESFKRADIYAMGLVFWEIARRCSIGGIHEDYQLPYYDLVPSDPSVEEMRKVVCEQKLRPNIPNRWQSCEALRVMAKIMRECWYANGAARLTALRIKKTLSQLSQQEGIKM
In words: Biochemical ALK5 (TGF-βR1) assay to measure pKi (LANCE Ultra ULight kinase assay). Particulars: apparent pKi, converted from pIC50 by Cheng-Prusoff. Summed up: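 Read-out was LANCE Ultra TR-FRET with a europium anti-phospho-Topo IIα Thr1342 antibody after EDTA quench. Kinase reaction ran 60 min at 37 °C with ATP added from a 125 μM 5× stock, after 60 min compound–enzyme equilibration at room temperature. Values are pKi from Cheng-Prusoff conversion of fitted pIC50.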

On to `COC(=O)Cc1cc(Nc2nccc(Nc3ccnc(-c4cccc(C)n4)n3)n2)ccc1N1CCNCC1` [Compound 252, methyl 2-[5-[[4-[[2-(6-methyl-2-pyridyl)pyrimidin-4-yl]amino]pyrimidin-2-yl]amino]-2-piperazin-1-yl-phenyl]acetate], for which the IC50 in assay [1] was 25.1 to 158 nM. For the same compound, the Ki in assay [2] is no more than 0.0316 nM.
With `Cc1cccc(-c2nc(Nc3ccnc(Nc4ccc(NC5CCNCC5)cc4)n3)c3cccn3n2)n1` [Compound 1042, N4-[2-(6-methyl-2-pyridyl)pyrrolo[2,1-f][1,2,4]triazin-4-yl]-N2-[4-(4-piperidylamino)phenyl] pyrimidine-2,4-diamine], the IC50 in assay [1] is 25.1 to 158 nM. Also, in assay [2], the Ki was 0.0398 to 0.316 nM.
As to `Cc1cccc(-c2nccc(Nc3ccnc(Nc4ccc(CN5CCCC(C(=O)NCC6CNC6)C5)cc4)n3)n2)n1` (stereo not shown) [Compound 495, N-(azetidin-3-ylmethyl)-1-[[4-[[4-[[2-(6-methyl-2-pyridyl)pyrimidin-4-yl]amino]pyrimidin-2-yl]amino]phenyl]methyl] piperidine-3-carboxamide], the IC50 in assay [1] is 25.1 to 158 nM. Moreover, the Ki in assay [2] is 0.0398 to 0.316 nM.
On the same counts, the results for `Cc1cccc(-c2nccc(Nc3ccnc(Nc4ccc(NCCN5CCOCC5)cc4)n3)n2)n1` [Compound 355, N4-[2-(6-methyl-2-pyridyl)pyrimidin-4-yl]-N2-[4-(2-morpholinoethylamino)phenyl] pyrimidine-2,4-diamine] are 25.1 to 158 nM and 0.398 to 3.16 nM.
On to `Cc1cccc(-c2nccc(Nc3ccnc(Nc4nc(C(=O)NCC5(CO)CNC5)cs4)n3)n2)n1` [Compound 140, N-[[3-(hydroxymethyl)azetidin-3-yl]methyl]-2-[[4-[[2-(6-methyl-2-pyridyl)pyrimidin-4-yl]amino]pyrimidin-2-yl]amino]thiazole-4-carboxamide], for which, in assay [1], the IC50 is 25.1 to 158 nM. Besides, in assay [2], the Ki was 0.0398 to 0.316 nM.
As to `Cc1cccc(-c2nccc(Nc3ccnc(Nc4csc(C(=O)NCC5CNC5)c4)n3)n2)n1` [Compound 89, N-(azetidin-3-ylmethyl)-4-[[4-[[2-(6-methyl-2-pyridyl)pyrimidin-4-yl]amino]pyrimidin-2-yl]amino]thiophene-2-carboxamide], the IC50 in assay [1] was no more than 20 nM. Further, the Ki in assay [2] was no more than 0.0316 nM.
For `Cc1cccc(-c2nccc(Nc3ccnc(Nc4ccc(CN5CCCC(C(=O)NC6CCNCC6)C5)cc4)n3)n2)n1` (stereo not shown) [Compound 320, 1-[[4-[[4-[[2-(6-methyl-2-pyridyl)pyrimidin-4-yl]amino]pyrimidin-2-yl]amino]phenyl]methyl]-N-(4-piperidyl)piperidine-3-carboxamide], in assay [1], the IC50 is 25.1 to 158 nM. Moreover, the Ki in assay [2] was 0.0398 to 0.316 nM.
In the case of `Cc1cccc(-c2nccc(Nc3ccnc(Nc4cccc(S(=O)(=O)NCCN(C)C)c4)n3)n2)n1` [Compound 420, N-[2-(dimethylamino)ethyl]-3-[[4-[[2-(6-methyl-2-pyridyl)pyrimidin-4-yl]amino]pyrimidin-2-yl]amino]benzenesulfonamide], in assay [1], the IC50 was 25.1 to 158 nM. For the same compound, the Ki in assay [2] is 0.0398 to 0.316 nM.
With `Cc1cccc(-c2nccc(Nc3ccnc(Nc4ccc(N5CCNCC5CC(=O)O[C@@H]5CCN(C)C5)cc4)n3)n2)n1` (mixture of isomers) [Compound 103, (R)-1-methylpyrrolidin-3-yl 2-(1-(4-((4-((2-(6-methylpyridin-2-yl)pyrimidin-4-yl)amino)pyrimidin-2-yl)amino)phenyl)piperazin-2-yl)acetate], the IC50 in assay [1] is 200 to 1260 nM. Further, the Ki in assay [2] was 0.398 to 3.16 nM.
Regarding `COCCc1ccc(Nc2nccc(Nc3ccnc(-c4cccc(C)n4)n3)n2)cc1` [Compound 401, N2-[4-(2-methoxyethyl)phenyl]-N4-[2-(6-methyl-2-pyridyl)pyrimidin-4-yl]pyrimidine-2,4-diamine], in assay [1], the IC50 was 25.1 to 158 nM. Also, the Ki in assay [2] is 0.398 to 3.16 nM.
Regarding `Cc1cccc(-c2nccc(Nc3ccnc(Nc4ncc(C(=O)OCC5CNC5)s4)n3)n2)n1` [Compound 338, azetidin-3-ylmethyl 2-((4-((2-(6-methylpyridin-2-yl)pyrimidin-4-yl)amino)pyrimidin-2-yl)amino)thiazole-5-carboxylate], the IC50 in assay [1] was 200 to 1260 nM. Besides, the Ki in assay [2] was 3.98 to 31.6 nM.
Regarding `Cc1cccc(-c2nccc(Nc3ccnc(Nc4csc(C(=O)OC[C@@H]5CCCN5)c4)n3)n2)n1` [Compound 637, [(2S)-pyrrolidin-2-yl]methyl 4-[[4-[[2-(6-methyl-2-pyridyl)pyrimidin-4-yl]amino]pyrimidin-2-yl]amino]thiophene-2-carboxylate], the IC50 in assay [1] is 25.1 to 158 nM. Besides, the Ki in assay [2] was 0.0398 to 0.316 nM.
As for `Cc1cccc(-c2nccc(Nc3ccnc(Nc4cccc(NC(=O)N5CCN(C(C)C)CC5)c4)n3)n2)n1` [Compound 531, 4-isopropyl-N-[3-[[4-[[2-(6-methyl-2-pyridyl)pyrimidin-4-yl]amino]pyrimidin-2-yl]amino]phenyl]piperazine-1-carboxamide], the IC50 in assay [1] is 25.1 to 158 nM. Also, the Ki in assay [2] is 0.0398 to 0.316 nM.
Regarding `Cc1cccc(-c2nccc(Nc3ccnc(Nc4ccc(N5CCC(N(C)Cc6ccccc6)CC5)cc4)n3)n2)n1` [Compound 432, N2-[4-[4-[benzyl(methyl)amino]-1-piperidyl]phenyl]-N4-[2-(6-methyl-2-pyridyl)pyrimidin-4-yl]pyrimidine-2,4-diamine], the IC50 in assay [1] is 25.1 to 158 nM. For the same compound, the Ki in assay [2] is 0.0398 to 0.316 nM.
Taken in the same sequence, the figures for `Cc1cccc(-c2nccc(Nc3ccnc(Nc4ccc(C(=O)OCCN5C[C@@H](C)N[C@@H](C)C5)nc4)n3)n2)n1` [Compound 589, 2-[(3R,5S)-3,5-dimethylpiperazin-1-yl]ethyl 5-[[4-[[2-(6-methyl-2-pyridyl)pyrimidin-4-yl]amino]pyrimidin-2-yl]amino]pyridine-2-carboxylate] were 25.1 to 158 nM and 0.398 to 3.16 nM.
`Cc1cccc(-c2nccc(Nc3ccnc(Nc4ccc(N5CCN(CC(C)C)CC5)cc4)n3)n2)n1` [Compound 494, N2-[4-(4-isobutylpiperazin-1-yl)phenyl]-N4-[2-(6-methyl-2-pyridyl)pyrimidin-4-yl]pyrimidine-2,4-diamine]: the IC50 in assay [1] was 25.1 to 158 nM. The Ki in assay [2] is 0.0398 to 0.316 nM.
For `Cc1cccc(-c2nccc(Nc3ccnc(Nc4csc(C(=O)OCCN5CCC[C@H](N)C5)c4)n3)n2)n1` [Compound 619, 2-[(3S)-3-amino-1-piperidyl]ethyl 4-[[4-[[2-(6-methyl-2-pyridyl)pyrimidin-4-yl]amino]pyrimidin-2-yl]amino]thiophene-2-carboxylate], the IC50 in assay [1] was 25.1 to 158 nM. The Ki in assay [2] was 0.0398 to 0.316 nM.
For `Cc1cccc(-c2nccc(Nc3ccnc(Nc4ccc(N5CCC(C(=O)O[C@@H]6CCNC6)CC5)cc4)n3)n2)n1` [Compound 337, [(3R)-pyrrolidin-3-yl] 1-[4-[[4-[[2-(6-methyl-2-pyridyl)pyrimidin-4-yl]amino]pyrimidin-2-yl]amino]phenyl]piperidine-4-carboxylate], the IC50 in assay [1] is 25.1 to 158 nM. In assay [2], the Ki is 0.0398 to 0.316 nM.
Taken in the same sequence, the figures for `Cc1cccc(-c2nccc(Nc3ccnc(Nc4ccc(N5CCC(N(C)Cc6ccccn6)CC5)cc4)n3)n2)n1` [Compound 243, N2-[4-[4-[methyl(2-pyridylmethyl)amino]-1-piperidyl]phenyl]-N4-[2-(6-methyl-2-pyridyl)pyrimidin-4-yl]pyrimidine-2,4-diamine] were 25.1 to 158 nM and 0.0398 to 0.316 nM.
With `Cc1cccc(-c2nccc(Nc3ccnc(Nc4ccc(NC[C@@H]5CCCN5)cc4)n3)n2)n1` [Compound 342, N4-[2-(6-methyl-2-pyridyl)pyrimidin-4-yl]-N2-[4-[[(2S)-pyrrolidin-2-yl]methylamino]phenyl] pyrimidine-2,4-diamine], the IC50 in assay [1] is 25.1 to 158 nM. Further, the Ki in assay [2] was 0.0398 to 0.316 nM.
